{
  "source": "ChEMBL document CHEMBL1125537",
  "about": "“3'-Azido-3',5'-dideoxythymidine-5'-methylphosphonic acid diphosphate: synthesis and HIV-1 reverse transcriptase inhibition” (J Med Chem, 1992)",
  "key": {"MT4 [1]": {"tested_on": "MT4", "assay": "antiviral activity against HIV-1 in MT-4 cells using cell-protection assay at a concentration of 200 uM", "assay_type": "functional, cell-based", "conditions": "Homo sapiens"}, "MT4 [2]": {"tested_on": "MT4", "assay": "Average antiviral activity against HIV-1 in MT-4 cells using cell-protection assay", "assay_type": "functional, cell-based", "conditions": "Homo sapiens"}},
  "note": "Activity calls are given as the source filed them. No cut-off for these calls is given here.",
  "data": [
    {"compound": "Cc1cn(C2CC(N=[N+]=[N-])C(CCP(=O)(O)Oc3ccccc3)O2)c(=O)[nH]c1=O", "note": "(stereo not given)", "values": [
      {"measurement": "Activity", "setting": "MT4 [1]", "result": "inactive"}
    ]},
    {"compound": "Cc1cn([C@H]2C[C@H](N=[N+]=[N-])[C@@H](CO)O2)c(=O)[nH]c1=O", "note": "[ZIDOVUDINE]", "values": [
      {"measurement": "IC50", "setting": "MT4 [2]", "result": 60, "unit": "nM"}
    ]},
    {"compound": "Cc1cn(C2CC(N=[N+]=[N-])C(/C=C/P(=O)(O)O)O2)c(=O)[nH]c1=O", "note": "(stereo not given)", "values": [
      {"measurement": "Activity", "setting": "MT4 [1]", "result": "inactive"}
    ]},
    {"compound": "Cc1cn(C2CC(N=[N+]=[N-])C(CCP(=O)(O)O)O2)c(=O)[nH]c1=O", "note": "(stereo not given)", "values": [
      {"measurement": "Activity", "setting": "MT4 [1]", "result": "inactive"}
    ]},
    {"compound": "Cc1cn(C2CC(N=[N+]=[N-])C(/C=C/P(=O)(O)Oc3ccccc3)O2)c(=O)[nH]c1=O", "note": "(stereo not given)", "values": [
      {"measurement": "Activity", "setting": "MT4 [1]", "result": "inactive"}
    ]}
  ]
}
